According to patent publication US20170290854A1, “COMPOSITIONS AND METHODS FOR TREATING AND PREVENTING BACTERIAL INFECTIONS” (K10 Technologies, Inc., priority 2014, published 2017):

Legend:
Test in all cases: MIC assay (Experiments II)
Type in all cases: cell-based
[1] = test system: Streptococcus pyogenes ATCC 51339; conditions: ATCC51339, S. pyogenes ATCC 51339, 24 hours, read-out: Minimal inhibitory concentration
Description: (§1) A test sample of water containing water clusters at a concentration of approximately 150 million water clusters per drop of water, with an average water droplet size of 500 microns in diameter, was stored at room temperature until required. The sample of water was prepared according to the methods described in S. Y. Lo et al., Evidence for the existence of stable-water-clusters at room temperature and normal pressure. Physics Letters A (2009)). Linezolid diluted in dimethyl sulfoxide was used as a control.
(§2) The test sample of water containing water clusters was added to the first well of a 96-well plate. 2-fold dilutions were performed into all of the wells of that row containing cation-adjusted Mueller-Hinton Broth (CA-MHB) with 5% lysed horse blood except for the last well, which was used as a control without any testing agent. This was repeated in Brain Heart Infusion (BHI) broth. The Linezolid control followed a similar protocol but was diluted to 8 μg/mL in the first well, followed by 2-fold serial dilutions into both CA-MHB with 5% lysed horse blood and BHI broth.
(§3) Streptococcus mutans ATCC 31341, Streptococcus pneumonia ATCC 49619, and Streptococcus pyogenes ATCC 51339 were obtained from the American Type Culture Collection (Manassas, Va.). All strains were maintained as frozen glycerol stocks at −80° C. Working stocks were prepared by streaking bacteria onto Sheep Blood Agar plates, growing at 37° C. with 5% CO2 for 24 hours and suspending isolated colonies in 3 mL of 0.9% sterile saline to approximately 1×10^8 CFU/mL.
(§4) Bacterial working stocks were diluted into appropriate liquid media for a final inocula of about 5×10^6 CFU/mL. CA-MHB with 5% lysed horse blood was used for all the Streptococcus spp. While BHI broth was also used for S. mutans. 10 μL of stock suspension was added to each well of a 96-well MIC plate treated with the test sample of water containing water clusters. […] The plates were incubated at 35° C. with 5% CO2 for a full 24 hours before reading.

[2] = test system: Streptococcus pneumonia ATCC 49619; conditions: Streptococcus pneumoniae, ATCC49619; S. pneumonia ATCC 49619; 24 hours; read-out: Minimal inhibitory concentration
Description: as §1, §2, §3, §4

[3] = test system: Streptococcus mutans ATCC 31341; conditions: ATCC31341, S. mutans ATCC 31341, 24 hours, read-out: Minimal inhibitory concentration
Description: as §1, §2, §3, §4

Measured: MIC

CC(=O)NC[C@H]1CN(c2ccc(N3CCOCC3)c(F)c2)C(=O)O1 [Linezolid]
1 µg/mL: all assays above
